Reference: article PMC10114980, “Triple targeting of mutant EGFR^L858R/T790M, COX-2, and 15-LOX: design and synthesis of novel quinazolinone tethered phenyl urea derivatives for anti-inflammatory and anticancer evaluation” (Journal of Enzyme Inhibition and Medicinal Chemistry, 2023)

Columns and labels:
wild-type EGFR = biological target: T1, wild-type EGFR (Homo sapiens, UniProt P00533); experiment: In vitro EGFR inhibition assay, wild type; type: biochemical; conditions: read-out: EGFR^WT IC50
T1 construct: purchased AssayQuant Technologies, Inc. (Marlboro, MA, USA)

EKVX = experiment: NCI single dose screen, EKVX; type: cell-based; conditions: Homo sapiens, non-small cell lung cancer, single dose 10^−5 M, read-out: growth inhibition percentage
Protocol: (§1) Screening of the anticancer activity of the newly synthesised compounds (6a, 6c, 6d, 6e, 6j, 6l, 6m, 6n, 6o, and 6p) was performed by the US National Cancer Institute (NCI) using 60 different human tumour cell lines in accordance with standard procedures formerly reported.
(§2) In vitro anticancer screening was carried out for the selected compounds at a single dose (10^−5 M) against 60 different human tumour cell lines of nine different cancer cell types: leukaemia, lung, colon, CNS, melanoma, ovarian, renal, prostate, and breast cancers.

NCI-H23 = experiment: NCI single dose screen, NCI-H23; type: cell-based; conditions: Homo sapiens; NCI-H23, non-small cell lung cancer; single dose 10^−5 M; read-out: growth inhibition percentage
Protocol: as §1, §2

NCI-H522 = experiment: NCI single dose screen, NCI-H522; type: cell-based; conditions: Homo sapiens; NCI-H522, non-small cell lung cancer; single dose 10^−5 M; read-out: growth inhibition percentage
Protocol: as §1, §2

HCC-2998 = experiment: NCI single dose screen, HCC-2998; type: cell-based; conditions: Homo sapiens; HCC-2998, colon cancer; single dose 10^−5 M; read-out: growth inhibition percentage
Protocol: as §1, §2

HCT-15 = experiment: NCI single dose screen, HCT-15; type: cell-based; conditions: Homo sapiens; HCT-15, colon cancer; single dose 10^−5 M; read-out: growth inhibition percentage
Protocol: as §1, §2

HT29 = experiment: NCI single dose screen, HT29; type: cell-based; conditions: Homo sapiens, HT-29; HT29, colon cancer; single dose 10^−5 M; read-out: growth inhibition percentage
Protocol: as §1, §2

UACC-62 = experiment: NCI single dose screen, UACC-62; type: cell-based; conditions: Homo sapiens; UACC-62, melanoma; single dose 10^−5 M; read-out: growth inhibition percentage
Protocol: as §1, §2

OVCAR-3 = experiment: NCI single dose screen, OVCAR-3; type: cell-based; conditions: Homo sapiens; OVCAR-3, ovarian cancer; single dose 10^−5 M; read-out: growth inhibition percentage
Protocol: as §1, §2

SK-OV-3 = experiment: NCI single dose screen, SK-OV-3; type: cell-based; conditions: Homo sapiens; SK-OV-3, ovarian cancer; single dose 10^−5 M; read-out: growth inhibition percentage
Protocol: as §1, §2

[1] = system: 60 NCI cancer cell lines panel; experiment: NCI 60 cell lines panel single dose screen, whole panel; type: cell-based, human; conditions: single dose 10^−5 M; for inhibition at 10 µM: Homo sapiens, 60 cell, read-out: growth inhibition percentages range over the sensitive cell lines; for number of cell lines with anticancer activity out of the 60 NCI cell lines: GI higher than 10%
Protocol: as §1, §2

T1 sequence (P00533 25-1210): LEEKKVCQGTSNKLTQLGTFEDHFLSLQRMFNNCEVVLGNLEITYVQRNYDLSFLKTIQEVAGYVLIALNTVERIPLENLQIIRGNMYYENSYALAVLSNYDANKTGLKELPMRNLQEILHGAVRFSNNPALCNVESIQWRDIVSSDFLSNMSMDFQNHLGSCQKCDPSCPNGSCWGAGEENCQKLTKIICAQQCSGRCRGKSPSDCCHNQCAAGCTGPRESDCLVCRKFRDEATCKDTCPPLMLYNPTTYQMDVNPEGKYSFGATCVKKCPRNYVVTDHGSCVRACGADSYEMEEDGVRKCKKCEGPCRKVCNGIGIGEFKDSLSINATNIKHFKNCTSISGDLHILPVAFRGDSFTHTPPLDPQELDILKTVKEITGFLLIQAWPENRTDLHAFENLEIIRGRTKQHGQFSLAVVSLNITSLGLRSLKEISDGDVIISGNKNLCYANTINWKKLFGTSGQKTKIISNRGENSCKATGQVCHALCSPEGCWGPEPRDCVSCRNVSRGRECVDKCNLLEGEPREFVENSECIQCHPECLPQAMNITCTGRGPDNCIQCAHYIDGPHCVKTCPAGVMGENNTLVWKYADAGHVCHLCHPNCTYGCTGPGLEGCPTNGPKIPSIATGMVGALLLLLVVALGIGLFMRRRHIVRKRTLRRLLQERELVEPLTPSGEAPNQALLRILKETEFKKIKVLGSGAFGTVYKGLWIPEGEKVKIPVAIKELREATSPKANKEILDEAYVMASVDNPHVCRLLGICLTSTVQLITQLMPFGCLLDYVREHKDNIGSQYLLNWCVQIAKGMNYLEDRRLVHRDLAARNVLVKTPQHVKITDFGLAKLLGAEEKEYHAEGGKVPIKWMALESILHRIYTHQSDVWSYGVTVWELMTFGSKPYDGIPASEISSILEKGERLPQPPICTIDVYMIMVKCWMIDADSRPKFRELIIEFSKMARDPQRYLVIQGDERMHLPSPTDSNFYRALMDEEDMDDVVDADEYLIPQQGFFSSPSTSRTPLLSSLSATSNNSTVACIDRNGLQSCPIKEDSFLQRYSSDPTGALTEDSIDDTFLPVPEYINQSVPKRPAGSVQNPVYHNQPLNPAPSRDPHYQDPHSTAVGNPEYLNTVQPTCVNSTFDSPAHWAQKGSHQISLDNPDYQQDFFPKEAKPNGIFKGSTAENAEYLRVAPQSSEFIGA

Work on `CC1N(NC(=O)Nc2ccc(F)cc2)C(=O)c2ccccc2N1C` (centres unmarked) [Compound 6l, 1–(1,2-Dimethyl-4-oxo-1,4-dihydroquinazolin-3(2H)-yl)-3-(4-fluorophenyl)urea] yielded an IC50 (wild-type EGFR) greater than 100 µM, an inhibition at 10 µM (EKVX) of less than 10% and an inhibition at 10 µM (NCI-H23) of less than 10%. For the same compound, the inhibition at 10 µM (NCI-H522) was less than 10%, the inhibition at 10 µM (HCC-2998) was less than 10% and the inhibition at 10 µM (HCT-15) was less than 10%. It also gave an inhibition at 10 µM (HT29) of less than 10%, an inhibition at 10 µM (UACC-62) of less than 10% and an inhibition at 10 µM (OVCAR-3) of 16.9%. For the same compound, the inhibition at 10 µM (SK-OV-3) was less than 10%.

With `CN1c2ccccc2C(=O)N(NC(=O)Nc2ccc(F)cc2)C1c1ccccc1` (centres unmarked) [Compound 6m, 1-(4-Fluorophenyl)-3-(1-methyl-4-oxo-2-phenyl-1,4-dihydroquinazolin-3(2H)-yl)urea] the IC50 (wild-type EGFR) was greater than 100 µM, the inhibition at 10 µM [1] was 10.5 to 40.1% and the “number of cell lines with anticancer activity out of the 60 NCI cell lines” value (“number of cell lines” for short) [1] was 19. The inhibition at 10 µM (EKVX) was 10.5%, the inhibition at 10 µM (NCI-H23) was less than 10% and the inhibition at 10 µM (NCI-H522) was less than 10%. For the same compound, the inhibition at 10 µM (HCC-2998) was less than 10%, the inhibition at 10 µM (HCT-15) was 14.3% and the inhibition at 10 µM (HT29) was less than 10%. For the same compound, the inhibition at 10 µM (UACC-62) was 20.7%, the inhibition at 10 µM (OVCAR-3) was 20.5% and the inhibition at 10 µM (SK-OV-3) was less than 10%.

`CN1c2ccccc2C(=O)N(NC(=O)Nc2ccc(F)cc2)C1c1ccc(F)cc1` (centres unmarked) [Compound 6n, 1-(4-Fluorophenyl)-3-(2–(4-fluorophenyl)-1-methyl-4-oxo-1,4-dihydroquinazolin-3(2H)-yl)urea] was tested, and the IC50 (wild-type EGFR) was greater than 100 µM, the inhibition at 10 µM [1] was 10.1 to 57.1% and the “number of cell lines” value [1] was 32. It also gave an inhibition at 10 µM (EKVX) of 16.4%, an inhibition at 10 µM (NCI-H23) of less than 10% and an inhibition at 10 µM (NCI-H522) of less than 10%. It also gave an inhibition at 10 µM (HCC-2998) of less than 10%, an inhibition at 10 µM (HCT-15) of 17.5% and an inhibition at 10 µM (HT29) of less than 10%. For the same compound, the inhibition at 10 µM (UACC-62) was 38.1%, the inhibition at 10 µM (OVCAR-3) was 41.9% and the inhibition at 10 µM (SK-OV-3) was 22.9%.

In the case of `CN1c2ccccc2C(=O)N(NC(=O)Nc2ccc(F)cc2)C1c1ccc([N+](=O)[O-])cc1` (centres unmarked) [Compound 6o, 1-(4-Fluorophenyl)-3–(1-methyl-2-(4-nitrophenyl)-4-oxo-1,4-dihydroquinazolin-3(2H)-yl)urea], the IC50 (wild-type EGFR) is reported as 52.4 ± 1.25 µM, the inhibition at 10 µM [1] is reported as 10.7 to 41.3% and the “number of cell lines” value [1] is reported as 21. It also gave an inhibition at 10 µM (EKVX) of 19.8%, an inhibition at 10 µM (NCI-H23) of less than 10% and an inhibition at 10 µM (NCI-H522) of less than 10%. It also gave an inhibition at 10 µM (HCC-2998) of less than 10%, an inhibition at 10 µM (HCT-15) of 10.7% and an inhibition at 10 µM (HT29) of less than 10%. It also gave an inhibition at 10 µM (UACC-62) of 27.4%, an inhibition at 10 µM (OVCAR-3) of 22.7% and an inhibition at 10 µM (SK-OV-3) of less than 10%.

Work on `COc1ccc(C2N(NC(=O)Nc3ccc(F)cc3)C(=O)c3ccccc3N2C)cc1` (centres unmarked) [Compound 6p, 1-(4-Fluorophenyl)-3-(2–(4-methoxyphenyl)-1-methyl-4-oxo-1,4-dihydroquinazolin-3(2H)-yl)urea] yielded an IC50 (wild-type EGFR) greater than 100 µM, an inhibition at 10 µM (EKVX) of less than 10% and an inhibition at 10 µM (NCI-H23) of less than 10%. It also gave an inhibition at 10 µM (NCI-H522) of less than 10%, an inhibition at 10 µM (HCC-2998) of less than 10% and an inhibition at 10 µM (HCT-15) of less than 10%. The inhibition at 10 µM (HT29) was less than 10%, the inhibition at 10 µM (UACC-62) was less than 10% and the inhibition at 10 µM (OVCAR-3) was 17.1%. It also gave an inhibition at 10 µM (SK-OV-3) of less than 10%.
